Legend:
[1] = tested on: JAK1-dependent STAT6 phosphorylation downstream of IL-13 stimulation in BEAS-2B human bronchial epithelial cells; assay: JAK1 pathway assay in BEAS-2B cells (IL-13 stimulated STAT6 phosphorylation, MSD); type: cell-based; settings: read-out: P-STAT6 BEAS2B + IL13 IC50
In short: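 BEAS-2B human bronchial epithelial cells, plated the day before in complete growth medium, were preincubated with compound for 1 hr at 37° C (0.2% DMSO final), then stimulated with IL-13 at its EC90 for 15 min. STAT6 phosphorylation in lysates was read by MSD; EC50 was taken as 50% inhibition versus DMSO control.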

[2] = target: T1, isolated recombinant JAK2 kinase domain (Homo sapiens, UniProt O60674); assay: JAK2 enzyme assay (Caliper LabChip, Ki); type: biochemical; settings: 25 μM ATP
T1 construct: The activity of the isolated recombinant JAK1 and JAK2 kinase domain was measured
In short: (§1)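 Caliper LabChip read-out: fraction of FAM-labeled JAK3-derived peptide converted to phosphopeptide by isolated JAK1/JAK2 kinase domain. Reaction 30 min, 22° C; stopped with EDTA, 50 mM final. Ki via Morrison tight-binding model, Ki=Ki,app/(1+[ATP]/Km,app).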

[3] = target: T2, isolated recombinant JAK1 kinase domain (Homo sapiens, UniProt P23458); assay: JAK1 enzyme assay (Caliper LabChip, Ki); type: biochemical; settings: recombinant JAK1 kinase domain, 25 μM ATP
T2 construct: The activity of the isolated recombinant JAK1 and JAK2 kinase domain was measured
In short: as §1

T1 sequence (O60674 849-1124 limits assumed): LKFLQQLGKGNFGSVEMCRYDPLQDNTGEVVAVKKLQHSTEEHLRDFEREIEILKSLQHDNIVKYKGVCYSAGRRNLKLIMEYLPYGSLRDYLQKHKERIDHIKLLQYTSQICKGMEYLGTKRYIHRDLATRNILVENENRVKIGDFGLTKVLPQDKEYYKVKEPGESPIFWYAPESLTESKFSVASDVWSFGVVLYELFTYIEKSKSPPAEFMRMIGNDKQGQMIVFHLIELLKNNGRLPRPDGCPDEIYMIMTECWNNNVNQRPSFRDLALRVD
T2 sequence (P23458 875-1153 limits assumed): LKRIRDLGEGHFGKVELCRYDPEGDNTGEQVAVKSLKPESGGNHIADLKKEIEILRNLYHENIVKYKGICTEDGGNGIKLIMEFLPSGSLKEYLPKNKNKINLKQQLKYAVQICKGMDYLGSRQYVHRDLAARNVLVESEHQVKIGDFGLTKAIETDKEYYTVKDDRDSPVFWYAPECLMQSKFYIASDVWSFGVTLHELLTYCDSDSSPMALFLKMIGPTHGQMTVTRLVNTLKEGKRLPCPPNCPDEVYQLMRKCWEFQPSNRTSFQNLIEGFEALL

Compound | IC50 [1] | Ki [2] | Ki [3]
CSc1ccc(OC(F)F)c(-c2nn(CC(=O)N3CCC(N(CCN4CCOCC4)C4COC4)CC3)cc2NC(=O)c2cnn3cccnc23)c1 [Example 92, N-[3-[2-(difluoromethoxy)-5-methylsulfanyl-phenyl]-1-[2-[4-[2-morpholinoethyl(oxetan-3-yl)amino]-1-piperidyl]-2-oxo-ethyl]pyrazol-4-yl]pyrazolo[1,5-a]pyrimidine-3-carboxamide] | 1000 nM | 0.77 nM | 0.61 nM
CSc1ccc(OC(F)F)c(-c2nn(CC(=O)N3CCN(CC4CCN(CC(=O)N5CCOCC5)CC4)CC3)cc2NC(=O)c2cnn3cccnc23)c1 [Example 93, N-[3-[2-(difluoromethoxy)-5-methylsulfanyl-phenyl]-1-[2-[4-[[1-(2-morpholino-2-oxo-ethyl)-4-piperidyl]methyl]piperazin-1-yl]-2-oxo-ethyl]pyrazol-4-yl]pyrazolo[1,5-a]pyrimidine-3-carboxamide] | 26 nM | 0.71 nM | 0.44 nM
CSc1ccc(OC(F)F)c(-c2nn(CC(=O)N3CCC(CN4CCN(CC(=O)N(C)C)C[C@@H]4C)CC3)cc2NC(=O)c2cnn3cccnc23)c1 [Example 94, N-[3-[2-(difluoromethoxy)-5-methylsulfanyl-phenyl]-1-[2-[4-[[(2S)-4-[2-(dimethylamino)-2-oxo-ethyl]-2-methyl-piperazin-1-yl]methyl]-1-piperidyl]-2-oxo-ethyl]pyrazol-4-yl]pyrazolo[1,5-a]pyrimidine-3-carboxamide] | 62 nM | 0.63 nM | 0.46 nM
CSc1ccc(OC(F)F)c(-c2nn(CC(=O)N3CCC(CN4CCNCC4)CC3)cc2NC(=O)c2cnn3cccnc23)c1 [Example 95, N-[3-[2-(difluoromethoxy)-5-methylsulfanyl-phenyl]-1-[2-oxo-2-[4-(piperazin-1-ylmethyl)-1-piperidyl]ethyl]pyrazol-4-yl]pyrazolo[1,5-a]pyrimidine-3-carboxamide] | 150 nM | 0.68 nM | 0.37 nM
CSc1ccc(OC(F)F)c(-c2nn(Cc3cn(C4CCN(C5CCOC5)CC4)nn3)cc2NC(=O)c2cnn3cccnc23)c1 (stereo not drawn) [Example 96, N-[3-[2-(difluoromethoxy)-5-methylsulfanyl-phenyl]-1-[[1-(1-tetrahydrofuran-3-yl-4-piperidyl)triazol-4-yl]methyl]pyrazol-4-yl]pyrazolo[1,5-a]pyrimidine-3-carboxamide] | 14 nM | 0.2 nM | 0.3 nM
CSc1ccc(OC(F)F)c(-c2nn(CC(=O)N3CCC(CN4CCN(CC(=O)N(C)C)[C@H](C)C4)CC3)cc2NC(=O)c2cnn3cccnc23)c1 [Example 97, N-[3-[2-(difluoromethoxy)-5-methylsulfanyl-phenyl]-1-[2-[4-[[(3R)-4-[2-(dimethylamino)-2-oxo-ethyl]-3-methyl-piperazin-1-yl]methyl]-1-piperidyl]-2-oxo-ethyl]pyrazol-4-yl]pyrazolo[1,5-a]pyrimidine-3-carboxamide] | 30 nM | 0.62 nM | 0.38 nM
CSc1ccc(OC(F)F)c(-c2nn(CC(=O)N3CCC(CN4C[C@@H](C)N(CC(=O)N(C)C)C[C@@H]4C)CC3)cc2NC(=O)c2cnn3cccnc23)c1 [Example 98, N-[3-[2-(difluoromethoxy)-5-methylsulfanyl-phenyl]-1-[2-[4-[[(2S,5R)-4-[2-(dimethylamino)-2-oxo-ethyl]-2,5-dimethyl-piperazin-1-yl]methyl]-1-piperidyl]-2-oxo-ethyl]pyrazol-4-yl]pyrazolo[1,5-a]pyrimidine-3-carboxamide] | 37 nM | 1.2 nM | 0.64 nM
CSc1ccc(OC(F)F)c(-c2nn(CC(=O)N3CCN([C@H]4CC[C@@H](C#N)CC4)CC3)cc2NC(=O)c2cnn3cccnc23)c1 [Example 99, N-[1-[2-[4-(4-cyanocyclohexyl)piperazin-1-yl]-2-oxo-ethyl]-3-[2-(difluoromethoxy)-5-methylsulfanyl-phenyl]pyrazol-4-yl]pyrazolo[1,5-a]pyrimidine-3-carboxamide] | 9.5 nM | 0.56 nM | 0.38 nM
CSc1ccc(OC(F)F)c(-c2nn(CC(=O)N3CCN([C@H]4CC[C@H](C#N)CC4)CC3)cc2NC(=O)c2cnn3cccnc23)c1 [Example 100, N-[1-[2-[4-(4-cyanocyclohexyl)piperazin-1-yl]-2-oxo-ethyl]-3-[2-(difluoromethoxy)-5-methylsulfanyl-phenyl]pyrazol-4-yl]pyrazolo[1,5-a]pyrimidine-3-carboxamide] | 9.4 nM | 0.6 nM | 0.41 nM
CC(C)Sc1ccc(OC(F)F)c(-c2n[nH]cc2NC(=O)c2cnn3cccnc23)c1 [Example 101, N-[3-[2-(difluoromethoxy)-5-(propan-2-ylsulfanyl)phenyl]-1H-pyrazol-4-yl]pyrazolo[1,5-a]pyrimidine-3-carboxamide] | 3.7 nM | 0.093 nM | 0.2 nM
CC(C)Sc1ccc(OC(F)F)c(-c2nn(CC(=O)N3CCC(N4CCOCC4)CC3)cc2NC(=O)c2cnn3cccnc23)c1 [Example 102, N-[3-[2-(difluoromethoxy)-5-isopropylsulfanyl-phenyl]-1-[2-(4-morpholino-1-piperidyl)-2-oxo-ethyl]pyrazol-4-yl]pyrazolo[1,5-a]pyrimidine-3-carboxamide] | 20 nM | 0.85 nM | 0.38 nM
CC(C)Sc1ccc(OC(F)F)c(-c2nn(CC(=O)N3CCN(CCCC#N)CC3)cc2NC(=O)c2cnn3cccnc23)c1 [Example 103, N-[1-[2-[4-(3-cyanopropyl)piperazin-1-yl]-2-oxo-ethyl]-3-[2-(difluoromethoxy)-5-isopropylsulfanyl-phenyl]pyrazol-4-yl]pyrazolo[1,5-a]pyrimidine-3-carboxamide] | 41 nM | 0.75 nM | 0.33 nM
CC(C)Sc1ccc(OC(F)F)c(-c2nn(CC(=O)N3CCC(NCC(=O)N(C)C)CC3)cc2NC(=O)c2cnn3cccnc23)c1 [Example 104, N-[3-[2-(difluoromethoxy)-5-isopropylsulfanyl-phenyl]-1-[2-[4-[[2-(dimethylamino)-2-oxo-ethyl]amino]-1-piperidyl]-2-oxo-ethyl]pyrazol-4-yl]pyrazolo[1,5-a]pyrimidine-3-carboxamide] | 160 nM | 1.2 nM | 0.42 nM
CC(C)Sc1ccc(OC(F)F)c(-c2nn(CC(=O)N3CCC(N(C)CC(=O)N(C)C)CC3)cc2NC(=O)c2cnn3cccnc23)c1 [Example 105, N-[3-[2-(difluoromethoxy)-5-isopropylsulfanyl-phenyl]-1-[2-[4-[[2-(dimethylamino)-2-oxo-ethyl]-methyl-amino]-1-piperidyl]-2-oxo-ethyl]pyrazol-4-yl]pyrazolo[1,5-a]pyrimidine-3-carboxamide] | 72 nM | 1.3 nM | 0.43 nM
CC(C)Sc1ccc(OC(F)F)c(-c2nn(CC(=O)N3CCC(N4CCN(C)C(=O)C4)CC3)cc2NC(=O)c2cnn3cccnc23)c1 [Example 106, N-[3-[2-(difluoromethoxy)-5-isopropylsulfanyl-phenyl]-1-[2-[4-(4-methyl-3-oxo-piperazin-1-yl)-1-piperidyl]-2-oxo-ethyl]pyrazol-4-yl]pyrazolo[1,5-a]pyrimidine-3-carboxamide] | 110 nM | 0.79 nM | 0.4 nM
CC(C)Sc1ccc(OC(F)F)c(-c2nn(CC(=O)N3CCC(N4CCCC(C#N)C4)CC3)cc2NC(=O)c2cnn3cccnc23)c1 (stereo not drawn) [Example 107, N-[1-[2-[4-(3-cyano-1-piperidyl)-1-piperidyl]-2-oxo-ethyl]-3-[2-(difluoromethoxy)-5-isopropylsulfanyl-phenyl]pyrazol-4-yl]pyrazolo[1,5-a]pyrimidine-3-carboxamide] | 56 nM | 1.7 nM | 0.75 nM
CC(C)Sc1ccc(OC(F)F)c(-c2nn(CC(=O)N3CCC(N4CCNC(=O)C4)CC3)cc2NC(=O)c2cnn3cccnc23)c1 [Example 108, N-[3-[2-(difluoromethoxy)-5-isopropylsulfanyl-phenyl]-1-[2-oxo-2-[4-(3-oxopiperazin-1-yl)-1-piperidyl]ethyl]pyrazol-4-yl]pyrazolo[1,5-a]pyrimidine-3-carboxamide] | 850 nM | 0.94 nM | 0.37 nM
CC(C)Sc1ccc(OC(F)F)c(-c2nn(CC(=O)N3CCN(CCN4CCOCC4)CC3)cc2NC(=O)c2cnn3cccnc23)c1 [Example 109, N-[3-[2-(difluoromethoxy)-5-isopropylsulfanyl-phenyl]-1-[2-[4-(2-morpholinoethyl)piperazin-1-yl]-2-oxo-ethyl]pyrazol-4-yl]pyrazolo[1,5-a]pyrimidine-3-carboxamide] | 33 nM | 0.78 nM | 0.41 nM
CC(C)Sc1ccc(OC(F)F)c(-c2nn(CC(=O)N3CCC(N(C)C4COC4)CC3)cc2NC(=O)c2cnn3cccnc23)c1 [Example 110, N-[3-[2-(difluoromethoxy)-5-isopropylsulfanyl-phenyl]-1-[2-[4-[methyl(oxetan-3-yl)amino]-1-piperidyl]-2-oxo-ethyl]pyrazol-4-yl]pyrazolo[1,5-a]pyrimidine-3-carboxamide] | 27 nM | 1 nM | 0.41 nM
CC(C)Sc1ccc(OC(F)F)c(-c2nn(CC(=O)N3CCC(N4CCSCC4)CC3)cc2NC(=O)c2cnn3cccnc23)c1 [Example 111, N-[3-[2-(difluoromethoxy)-5-isopropylsulfanyl-phenyl]-1-[2-oxo-2-(4-thiomorpholino-1-piperidyl)ethyl]pyrazol-4-yl]pyrazolo[1,5-a]pyrimidine-3-carboxamide] | 19 nM | 1 nM | 0.38 nM
